Several values for one entry are separate records, joined by “and”; a condition that tells them apart may be missing. Equal entries are not always repeated.
System: KRAS PDC multicell spheroid viability
Test: Anticancer human tumor 521955-158-R6-J3-PDC patient-derived pancreatic carcinoma cell line growth inhibition [KRAS2]
Details: for viability, T/C: stronger effect = lower value
Summary of the method: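 KRAS-mutant tumor cells were grown as spheroids with HUVEC endothelial cells and human MSCs as stroma. Targeted agents were tested alone and with KRAS pathway inhibitors. Doses started at or near clinical Cmax, or 10 microM, descending half-log.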

[1] = curve of first compound, second compound 0.1 µM
[2] = curve of first compound, second compound 0.316 µM
[3] = curve of first compound, second compound 1 µM
[4] = curve of first compound, second compound 3.16 µM
[5] = second compound 0.1 µM, first compound 0.01 µM
[6] = second compound 0.1 µM, first compound 0.0316 µM
[7] = second compound 0.1 µM, first compound 0.1 µM
[8] = second compound 0.1 µM, first compound 0.316 µM
[9] = second compound 0.1 µM, first compound 1 µM
[10] = second compound 0.1 µM, first compound 3.16 µM
[11] = second compound 0.316 µM, first compound 0.01 µM
[12] = second compound 0.316 µM, first compound 0.0316 µM
[13] = second compound 0.316 µM, first compound 0.1 µM
[14] = second compound 0.316 µM, first compound 0.316 µM
[15] = second compound 0.316 µM, first compound 1 µM
[16] = second compound 0.316 µM, first compound 3.16 µM
[17] = second compound 1 µM, first compound 0.01 µM
[18] = second compound 1 µM, first compound 0.0316 µM
[19] = second compound 1 µM, first compound 0.1 µM
[20] = second compound 1 µM, first compound 0.316 µM
[21] = second compound 1 µM, first compound 1 µM
[22] = second compound 1 µM, first compound 3.16 µM
[23] = second compound 3.16 µM, first compound 0.01 µM
[24] = second compound 3.16 µM, first compound 0.0316 µM
[25] = second compound 3.16 µM, first compound 0.1 µM
[26] = second compound 3.16 µM, first compound 0.316 µM
[27] = second compound 3.16 µM, first compound 1 µM
[28] = second compound 3.16 µM, first compound 3.16 µM
[29] = curve of first compound, second compound 10 µM
[30] = second compound 0.1 µM, first compound 10 µM
[31] = second compound 0.316 µM, first compound 10 µM
[32] = second compound 1 µM, first compound 10 µM
[33] = second compound 3.16 µM, first compound 10 µM
[34] = second compound 10 µM, first compound 0.0316 µM
[35] = second compound 10 µM, first compound 0.1 µM
[36] = second compound 10 µM, first compound 0.316 µM
[37] = second compound 10 µM, first compound 1 µM
[38] = second compound 10 µM, first compound 3.16 µM
[39] = second compound 10 µM, first compound 10 µM
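Further: drug exposure lasted seven days.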
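Wherever viability, T/C is given: 100% = DMSO vehicle wells and lower means fewer viable cells.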

CC(C)n1nc(-c2ccc3oc(N)nc3c2)c2c(N)ncnc21
viability, T/C (compound 0.000316 µM): 91.3% [middle of 5 runs]
viability, T/C (compound 0.001 µM): 91.3% [middle of 5 runs]
viability, T/C (compound 0.00316 µM): 82.9% [middle of 5 runs]
viability, T/C (compound 0.01 µM): 74.3% [middle of 5 runs]
viability, T/C (compound 0.0316 µM): 67.2% [middle of 5 runs]
viability, T/C (compound 0.1 µM): 50.7% [middle of 5 runs]
IC50 (curve of compound): > 100 nM and 95.7 nM

CC(=O)OC12COC1CC(O)C1(C)C(=O)C(O)C3=C(C)C(OC(=O)C(O)C(NC(=O)OC(C)(C)C)c4ccccc4)CC(O)(C(OC(=O)c4ccccc4)C21)C3(C)C (stereo unspecified) + C=CC(=O)N1CCN(c2nc(OCC3CCCN3C)nc3c2CCN(c2cccc4cccc(C)c24)C3)CC1CC#N
IC50 (curve of first compound, second compound 0.0316 µM): > 3160 nM
IC50 [1]: > 3160 nM
IC50 [2]: > 3160 nM
IC50 [3]: > 3160 nM
IC50 [4]: > 3160 nM
viability, T/C (second compound 0.0316 µM, first compound 0.01 µM): 83.9%
viability, T/C (second compound 0.0316 µM, first compound 0.0316 µM): 72.8%
viability, T/C (second compound 0.0316 µM, first compound 0.1 µM): 71.7%
viability, T/C (second compound 0.0316 µM, first compound 0.316 µM): 80.5%
viability, T/C (second compound 0.0316 µM, first compound 1 µM): 93%
viability, T/C (second compound 0.0316 µM, first compound 3.16 µM): 110%
viability, T/C [5]: 79.6%
viability, T/C [6]: 78.7%
viability, T/C [7]: 70.4%
viability, T/C [8]: 81.7%
viability, T/C [9]: 95%
viability, T/C [10]: 130%
viability, T/C [11]: 69.2%
viability, T/C [12]: 52.9%
viability, T/C [13]: 68.8%
viability, T/C [14]: 75.1%
viability, T/C [15]: 81.3%
viability, T/C [16]: 87.9%
viability, T/C [17]: 71%
viability, T/C [18]: 82.2%
viability, T/C [19]: 82.7%
viability, T/C [20]: 83.3%
viability, T/C [21]: 113%
viability, T/C [22]: 112%
viability, T/C [23]: 83.2%
viability, T/C [24]: 81.4%
viability, T/C [25]: 76.8%
viability, T/C [26]: 74.3%
viability, T/C [27]: 102%
viability, T/C [28]: 107%

COC(=O)c1ccc2c(C(=Nc3ccc(N(C)C(=O)CN4CCN(C)CC4)cc3)c3ccccc3)c(O)[nH]c2c1 + CNCc1ccccc1-c1csc(C(C)Nc2nc(C)nc3cc(OC)c(OC)cc23)c1
IC50 [1]: 3030 nM
IC50 [2]: 1840 nM
IC50 [3]: 3280 nM
IC50 [4]: < 31.6 nM
IC50 [29]: < 31.6 nM
viability, T/C [6]: 91%
viability, T/C [7]: 105%
viability, T/C [8]: 120%
viability, T/C [9]: 134%
viability, T/C [10]: 47.5%
viability, T/C [30]: 0.53%
viability, T/C [12]: 83.7%
viability, T/C [13]: 93.3%
viability, T/C [14]: 107%
viability, T/C [15]: 120%
viability, T/C [16]: 5.04%
viability, T/C [31]: 0.18%
viability, T/C [18]: 84.1%
viability, T/C [19]: 90.1%
viability, T/C [20]: 110%
viability, T/C [21]: 110%
viability, T/C [22]: 51.7%
viability, T/C [32]: 1.19%
viability, T/C [24]: 2.05%
viability, T/C [25]: 1.85%
viability, T/C [26]: 2.08%
viability, T/C [27]: 1.25%
viability, T/C [28]: 0.14%
viability, T/C [33]: 1.34%
viability, T/C [34]: 0.42%
viability, T/C [35]: 1.27%
viability, T/C [36]: 0.48%
viability, T/C [37]: 0.14%
viability, T/C [38]: 2.49%
viability, T/C [39]: 0.86%

O=C(c1cc(Cc2n[nH]c(=O)c3ccccc23)ccc1F)N1CCN(C(=O)C2CC2)CC1
viability, T/C (compound 0.0316 µM): 89.9% [middle of 5 runs]
viability, T/C (compound 0.316 µM): 86.2% [middle of 5 runs]
viability, T/C (compound 3.16 µM): 78.3% [middle of 5 runs]
IC50 (curve of compound): > 10000 nM

Cn1ncnc1[C@H]1c2n[nH]c(=O)c3cc(F)cc(c23)N[C@@H]1c1ccc(F)cc1 + CNCc1ccccc1-c1csc(C(C)Nc2nc(C)nc3cc(OC)c(OC)cc23)c1
IC50 [1]: > 100 nM
IC50 [2]: > 100 nM
IC50 [3]: > 100 nM
IC50 [4]: < 0.316 nM
IC50 [29]: < 0.316 nM
viability, T/C (second compound 0.1 µM, first compound 0.000316 µM): 96.3%
viability, T/C (second compound 0.1 µM, first compound 0.001 µM): 93.7%
viability, T/C (second compound 0.1 µM, first compound 0.00316 µM): 85.5%
viability, T/C [5]: 92.1%
viability, T/C [6]: 85.9%
viability, T/C [7]: 90.6%
viability, T/C (second compound 0.316 µM, first compound 0.000316 µM): 89.1%
viability, T/C (second compound 0.316 µM, first compound 0.001 µM): 82.2%
viability, T/C (second compound 0.316 µM, first compound 0.00316 µM): 91.1%
viability, T/C [11]: 80%
viability, T/C [12]: 80.5%
viability, T/C [13]: 72.2%
viability, T/C (second compound 1 µM, first compound 0.000316 µM): 68.3%
viability, T/C (second compound 1 µM, first compound 0.001 µM): 78.4%
viability, T/C (second compound 1 µM, first compound 0.00316 µM): 72.2%
viability, T/C [17]: 74.4%
viability, T/C [18]: 78.4%
viability, T/C [19]: 70.2%
viability, T/C (second compound 3.16 µM, first compound 0.000316 µM): 0.28%
viability, T/C (second compound 3.16 µM, first compound 0.001 µM): 2.23%
viability, T/C (second compound 3.16 µM, first compound 0.00316 µM): 0.7%
viability, T/C [23]: 0.93%
viability, T/C [24]: 1.22%
viability, T/C [25]: 1.42%
viability, T/C (second compound 10 µM, first compound 0.000316 µM): 0.15%
viability, T/C (second compound 10 µM, first compound 0.001 µM): 0.17%
viability, T/C (second compound 10 µM, first compound 0.00316 µM): 0.15%
viability, T/C (second compound 10 µM, first compound 0.01 µM): 0.86%
viability, T/C [34]: 0.21%
viability, T/C [35]: 0.26%

COc1cc(Nc2ncc3c(n2)-c2ccc(Cl)cc2C(c2c(F)cccc2OC)=NC3)ccc1C(=O)O + CNCc1ccccc1-c1csc(C(C)Nc2nc(C)nc3cc(OC)c(OC)cc23)c1
IC50 [1]: > 10000 nM
IC50 [2]: > 10000 nM
IC50 [3]: > 10000 nM
IC50 [4]: < 31.6 nM
IC50 [29]: < 31.6 nM
viability, T/C [6]: 95.5%
viability, T/C [7]: 89.9%
viability, T/C [8]: 94.6%
viability, T/C [9]: 101%
viability, T/C [10]: 113%
viability, T/C [30]: 89.4%
viability, T/C [12]: 104%
viability, T/C [13]: 84.6%
viability, T/C [14]: 90.9%
viability, T/C [15]: 88.7%
viability, T/C [16]: 90.7%
viability, T/C [31]: 104%
viability, T/C [18]: 93.6%
viability, T/C [19]: 73.3%
viability, T/C [20]: 86.7%
viability, T/C [21]: 78.2%
viability, T/C [22]: 87.3%
viability, T/C [32]: 88.6%
viability, T/C [24]: 1.45%
viability, T/C [25]: 0.8%
viability, T/C [26]: 0.53%
viability, T/C [27]: 1.47%
viability, T/C [28]: 2.38%
viability, T/C [33]: 2.86%
viability, T/C [34]: 0.82%
viability, T/C [35]: 1.21%
viability, T/C [36]: 0.68%
viability, T/C [37]: 0.35%
viability, T/C [38]: 0.3%
viability, T/C [39]: 0.59%

CCNC(=O)CC1N=C(c2ccc(Cl)cc2)c2cc(OC)ccc2-n2c(C)nnc21 (stereo unspecified) + C=CC(=O)N1CCN(c2nc(=O)n(-c3c(C)ccnc3C(C)C)c3nc(-c4c(O)cccc4F)c(F)cc23)C(C)C1
IC50 [1]: > 10000 nM
IC50 [2]: > 10000 nM
IC50 [3]: > 10000 nM
IC50 [4]: 930 nM
IC50 [29]: 266 nM
viability, T/C [6]: 88.2%
viability, T/C [7]: 93.7%
viability, T/C [8]: 79.9%
viability, T/C [9]: 78.5%
viability, T/C [10]: 81.6%
viability, T/C [30]: 78.6%
viability, T/C [12]: 103%
viability, T/C [13]: 105%
viability, T/C [14]: 79.3%
viability, T/C [15]: 72.2%
viability, T/C [16]: 83.3%
viability, T/C [31]: 70.6%
viability, T/C [18]: 112%
viability, T/C [19]: 108%
viability, T/C [20]: 83.2%
viability, T/C [21]: 81.1%
viability, T/C [22]: 66.5%
viability, T/C [32]: 68.7%
viability, T/C [24]: 89.3%
viability, T/C [25]: 83%
viability, T/C [26]: 65.6%
viability, T/C [27]: 49.8%
viability, T/C [28]: 40.7%
viability, T/C [33]: 45.3%
viability, T/C [34]: 72.1%
viability, T/C [35]: 68.4%
viability, T/C [36]: 46.2%
viability, T/C [37]: 35.5%
viability, T/C [38]: 33.7%
viability, T/C [39]: 29.2%

From PubChem BioAssay AID1963864 (Molecular Pharmacology Branch, DTP, NCI, 2024)
